One may read the Km as the substrate concentration at which the rate is half of its maximum. As usually defined, the kcat is the number of substrate molecules converted per active site and unit of time at saturation. As a reminder, the kcat/Km is the second-order rate constant that governs catalysis at low substrate concentration.

Experimental findings from PMC8954004, “Biochemical Basis of Xylooligosaccharide Utilisation by Gut Bacteria” (International Journal of Molecular Sciences, 2022) are described below.

The target in one data set is T1, Bp-XylX-2 (Blautia producta, UniProt A0ABX6JGM7).
T1 construct: gene GXM18_22300; recombinant E. coli Rosetta (DE3), pET28a, His-tag, any signal peptide excluded; ~75 kDa; catalytic Asp386 and Glu409; strain proteome UP000464715
Briefly: inhibition of pNP-Xyl hydrolysis, absorbance […] nm. The class given is biochemical. As to conditions: 2 mM pNP-Xyl, 50 mM sodium phosphate pH 5.7, 45 °C, 5 min; 200 mM xylose.

A further data set has as its target T2, Bp-XylX-1 (Blautia producta, UniProt A0ABX6JHR7).
T2 construct: gene GXM18_27615; recombinant E. coli Rosetta (DE3), pET28a, His-tag, any signal peptide excluded; ~75 kDa; catalytic Asp371 and Glu408; strain proteome UP000464715
Briefly: inhibition of pNP-Xyl hydrolysis, absorbance […] nm. The class given is biochemical. To be noted: 2 mM pNP-Xyl, 50 mM sodium phosphate pH 5.7, 45 °C, 5 min; 200 mM xylose.

The next data set addresses T3, Lr-XylC (Limosilactobacillus reuteri, UniProt A0A0S4NRU4).
T3 construct: recombinant E. coli Rosetta (DE3), pET28a, His-tag, any signal peptide excluded; ~75 kDa; catalytic Asp382 and Glu415
T3 sequence (A0A0S4NRU4 1-679): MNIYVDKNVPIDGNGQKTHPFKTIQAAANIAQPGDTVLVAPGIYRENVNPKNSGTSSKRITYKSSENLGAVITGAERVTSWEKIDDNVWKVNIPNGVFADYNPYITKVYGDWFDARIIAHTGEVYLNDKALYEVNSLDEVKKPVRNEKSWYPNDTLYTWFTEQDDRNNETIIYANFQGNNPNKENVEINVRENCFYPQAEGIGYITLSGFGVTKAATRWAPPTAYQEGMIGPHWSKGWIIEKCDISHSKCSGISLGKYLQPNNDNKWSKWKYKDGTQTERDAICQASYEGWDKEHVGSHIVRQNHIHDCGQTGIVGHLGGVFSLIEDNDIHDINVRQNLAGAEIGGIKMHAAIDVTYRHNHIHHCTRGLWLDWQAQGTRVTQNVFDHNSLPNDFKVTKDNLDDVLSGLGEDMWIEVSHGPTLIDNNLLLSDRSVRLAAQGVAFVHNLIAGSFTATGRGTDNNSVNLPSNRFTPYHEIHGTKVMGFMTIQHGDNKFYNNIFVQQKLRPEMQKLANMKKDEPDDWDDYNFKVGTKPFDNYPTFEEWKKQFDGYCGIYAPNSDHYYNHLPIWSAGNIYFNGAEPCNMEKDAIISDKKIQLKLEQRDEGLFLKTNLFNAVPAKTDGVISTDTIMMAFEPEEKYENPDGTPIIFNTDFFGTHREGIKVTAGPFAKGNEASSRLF
Kind of data set: inhibition of pNP-Xyl hydrolysis, absorbance […] nm. The class given is biochemical. To be noted: 2 mM pNP-Xyl, 50 mM sodium phosphate pH 5.7, 45 °C, 5 min; 200 mM xylose.

Substrate in the data set “purified protein”: O=[N+]([O-])c1ccc(O[C@@H]2OC[C@@H](O)[C@H](O)[C@H]2O)cc1
Briefly: purified protein. As to conditions: sodium phosphate pH 5.7 (50 mM in Table 1, 10 mM in methods), 45 °C, 10 min, 1.3 µM enzyme. It is filed as biochemical, Limosilactobacillus reuteri.

T2 sequence (A0ABX6JHR7 entry or part of it): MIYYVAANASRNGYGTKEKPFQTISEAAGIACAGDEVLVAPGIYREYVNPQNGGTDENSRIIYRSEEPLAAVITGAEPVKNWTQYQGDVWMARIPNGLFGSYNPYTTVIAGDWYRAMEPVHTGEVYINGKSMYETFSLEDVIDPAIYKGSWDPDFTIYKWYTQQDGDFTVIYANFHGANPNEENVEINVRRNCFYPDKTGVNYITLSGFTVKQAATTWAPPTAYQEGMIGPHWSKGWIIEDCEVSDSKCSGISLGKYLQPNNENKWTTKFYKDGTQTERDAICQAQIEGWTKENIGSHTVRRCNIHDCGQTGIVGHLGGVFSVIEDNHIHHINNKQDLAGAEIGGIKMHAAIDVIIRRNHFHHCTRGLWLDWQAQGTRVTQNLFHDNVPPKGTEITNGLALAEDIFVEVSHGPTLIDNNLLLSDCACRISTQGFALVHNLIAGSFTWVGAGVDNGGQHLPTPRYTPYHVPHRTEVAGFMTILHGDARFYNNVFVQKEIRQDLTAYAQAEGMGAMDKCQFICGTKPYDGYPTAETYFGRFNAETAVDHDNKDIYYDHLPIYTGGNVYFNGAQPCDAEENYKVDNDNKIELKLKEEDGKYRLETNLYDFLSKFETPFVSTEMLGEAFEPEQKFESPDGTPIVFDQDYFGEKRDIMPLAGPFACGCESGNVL
T1 sequence (A0ABX6JGM7 entry or part of it): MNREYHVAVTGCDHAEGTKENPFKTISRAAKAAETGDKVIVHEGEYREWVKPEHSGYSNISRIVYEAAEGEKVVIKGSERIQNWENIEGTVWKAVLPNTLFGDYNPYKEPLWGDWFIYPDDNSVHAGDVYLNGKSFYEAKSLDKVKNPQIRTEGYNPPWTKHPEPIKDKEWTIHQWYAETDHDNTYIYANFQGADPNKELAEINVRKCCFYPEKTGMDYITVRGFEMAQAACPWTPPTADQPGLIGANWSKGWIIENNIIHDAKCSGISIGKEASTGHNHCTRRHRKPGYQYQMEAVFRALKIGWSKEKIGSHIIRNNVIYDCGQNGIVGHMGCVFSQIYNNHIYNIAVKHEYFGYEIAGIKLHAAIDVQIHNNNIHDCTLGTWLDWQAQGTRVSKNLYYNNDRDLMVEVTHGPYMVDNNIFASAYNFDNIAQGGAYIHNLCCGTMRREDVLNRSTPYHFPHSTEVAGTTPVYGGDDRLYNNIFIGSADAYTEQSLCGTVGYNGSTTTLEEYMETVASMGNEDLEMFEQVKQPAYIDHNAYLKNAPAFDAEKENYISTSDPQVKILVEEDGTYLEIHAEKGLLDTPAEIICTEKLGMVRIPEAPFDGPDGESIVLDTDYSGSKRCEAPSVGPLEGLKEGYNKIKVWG

For the molecule `OC1OC[C@@H](O)[C@H](O)[C@H]1O` (stereo partly drawn) [xylose], the “% reduction in activity at 200 mM” value at Bp-XylX-2 is recorded as ~ 26%; at Bp-XylX-1, ~ 42%; on Lr-XylC it was ~ 12%.

B1: Lr-XylC (Limosilactobacillus reuteri subsp. suis) (protein)
chain: T3 sequence (A0A0S4NRU4 1-679)
notes: recombinant E. coli Rosetta (DE3), pET28a, His-tag, any signal peptide excluded; ~75 kDa; catalytic Asp382 and Glu415
On to B1, for which, in the data set “purified protein”, the Km is 230 ± 20 µM, the kcat amounted to 11.4 ± 0.2 s⁻¹ and the specificity constant (kcat/Km) was found to be 49000 M⁻¹ s⁻¹.
